Read-outs that look alike come from different tables or passages of the source.
Key:
BT-138 = test: Cell viability, BT-138 (Table S1); type: cell-based; conditions: BT-138, 24 h
Description: 1. Cell Growth Inhibition by Dasatinib, Si306 and Pro-Si306
GB cell lines BT138, T98G and A172 were treated with Si306 and pro-Si306 at concentrations ranging from 1 to 100 µM, or with DMSO as a control. Cell viability was evaluated 72 h after treatment for T98G and A172 cell lines and after 24 h for BT-138. In table S1 the IC50 values are reported.
Table S1. Sensitivity of glioblastoma multiforme (GBM) cells to Si306 and pro-Si306 expressed as IC50 […]
Figure S1. Rho 123 accumulation in U87-TxR cells treated with increasing concentrations of TQ (A), Dex-VER (B), Si306 (C) and pro-Si306 (D).
(1 picture or pasted object on this page, not shown here)

[1] = Plasma pharmacokinetics of Si306 in mice; type: in vivo, BALB/C mice; conditions: for AUC(0-t): read-out: AUC 0→24 h; for MRT inf: read-out: MRT 0→∞
Excerpt: (§1) Naive male BALB/C mice (weight 20 ± 2 g) were ordered from Charles River (Milan, Italy). All animals were pathogen free and approximately 4–6 weeks old when they arrived. The adaption period to the environment was not less than seven days. All the procedures used on animals in this study were approved by Institutional Animal Use and Care Committee at Università Cattolica del S. Cuore, Rome and Università degli Studi di Siena and authorized by the Italian Ministry of Health, according to Legislative Decree 116/92, which implemented the European Directive 86/609/EEC on laboratory animal protection in Italy. Methods for all the conducted experiments were performed in accordance with regulations, standards and guidelines of the Animal Use and Care Committee of Università Cattolica del S. Cuore, Rome and Università degli Studi di Siena.
(§2) Si306 was dissolved in a mixture of Tween80 (10% v/v), benzyl alcohol (1% v/v) and a 10 mM solution of citric acid. The compound was administered intravenously as a single dose of 25 mg/kg in 200 μL of volume. At several time points (0.08, 0.25, 0.5, 1, 2, 4, 8, 24 h), after drug administration, mice were treated i.p. with heparin (5000 U/kg) and sacrificed under CO2. Five animals were used for each time point. Blood, brain, liver and kidneys were collected for the following quantitative analysis. Approximately 500–600 μL of blood was collected from each animal and transferred to a tube containing 10 μL of heparin and mixed briefly.
(§3) For the oral PK studies, mice received a single dose of 50 mg/kg of Si306 (dissolved in the same vehicle used for i.v. studies) in 400 μL of final volume by gavage. At nine time-points (0.25, 0.5, 1, 1.5, 2, 3, 4, 8, 24 h) after administration, mice were sacrificed under CO2. Blood and organs were collected and analyzed by LC-MS. The pharmacokinetic parameters, including area under concentration-time curve (AUC), maximum plasma concentration (Cmax), half-time (t1/2), apparent volume of distribution (V), plasma clearance (CL) and mean residence time (MRT), were calculated by non-compartmental analysis using PKSolver software (ver. 1.0, Nanjing, China).
(§4) Blood samples were centrifuged at 5000 rpm for 20 min to separate the plasma fraction, which was subsequently collected in a test tube. Acetonitrile (1 mL, with Si34 as internal standard at the concentration of 5 μg/mL) was added to each sample to denature proteins. Samples were centrifuged at 5000 rpm for 20 min, and the supernatant was recovered, dried under vacuum, solubilized again in methanol (100 μL), and analyzed. Brain and the other organs were homogenized using a T10 basic ULTRA-TURRAX® homogenizer (Bioclass, Pistoia, Italy); in order to extract the compound from the tissue, acetonitrile internal standard solution was added, and the homogenate was centrifuged at 5000 rpm for 20 min. The supernatant was recovered, filtered and analyzed by LC-MS. The quantification of each compound was performed by reference to the appropriate calibration curve. Representative LC-MS chromatograms for Si306 and for Si34 are reported in Figure S2 and Figure S3 respectively.

[2] = Brain and tissue distribution of Si306 in mice; type: in vivo, BALB/C mice; conditions: for Tmax / Kp / AUC(0-inf) / Cmax / half-life / AUC(0-t) / MRT inf: male, BALB/C, mouse; for Tmax / AUC(0-inf) / Cmax / half-life / AUC(0-t) / MRT inf: brain; for Kp: brain/plasma, read-out: AUC brain to plasma ratio; for AUC(0-t): read-out: AUC 0→24 h; for MRT inf: read-out: MRT 0→∞
Excerpt: as §1, §2, §3, §4

[3] = Acute toxicity study in mice (single i.v. dose); type: in vivo, BALB/c mice
Description: Male BALB/c mice (20 ± 2) g, supplied by Harlan Italy S.r.l., San Pietro al Natisone, Udine, Italy, were acclimated at 25 °C and 55% of humidity under natural light/dark conditions for 1 week before the proposed experiments. Animal welfare was routinely checked by veterinarians of the Service for Animal Welfare and all efforts were made to minimize suffering.
The study design includes three groups of five mice each. All mice were injected with compound through the tail vein in a single systemic dose (0.05 mL per dose). The test compound was solubilized in PBS/25% DMSO. The first group was treated with dose levels of 50 mg/kg; the second received a high-dose level of 100 mg/kg, whereas the third was inoculated with the only vehicle as the control. All mice were monitored for survival and the presence of any drug-related adverse effect (local signs of inflammation, weight loss, diarrhea, and behavioral alterations) throughout the experimental period. Mice were sacrificed 4 days after treatment, and liver, kidney, and brain tissue specimens were aseptically removed, fixed in 4% formaldehyde solution, and processed for paraffin embedding. Histopathological changes in tissue specimens were evaluated in 10 randomly selected tissue sections from each organ for all the samples. Sections cut at 2 μm were stained with hematoxylin and eosin (H&E) and analyzed by a pathologist with an optical microscope (Leica, Wetzlar, Germany).

U87 cells = tested on: U87 cells; parameters: method as in PMID 28650650; conditions: single oral treatment, mice orthotopically injected with U87 cells; cited from earlier work
[4] = male, BALB/C, mouse, iv, 25 mg/kg, mice
[5] = male, BALB/C, mouse, po, 50 mg/kg, mice

ClC(Cn1ncc2c(Nc3cccc(Br)c3)nc(SCCN3CCOCC3)nc21)c1ccccc1 (stereo not drawn) [Si306]
IC50 (BT-138): 72.6 ± 6.21 µM | Cmax for i.v. treatment, times higher than p.o. ([1]; i.v. 25 mg/kg vs p.o. 50 mg/kg): 8.5 times | CL z/F ([1]; i.v., 25 mg/kg, mice): 18.3 mL/min/kg | V z/F ([1]; i.v., 25 mg/kg, mice): 8.17 L/kg | Tmax ([1]; male, BALB/C, mouse, iv, 25 mg/kg, i.v., 25 mg/kg, mice, read-out: Tmax): 0.08 h | Tmax ([1]; male, BALB/C, mouse, iv, 25 mg/kg, i.v., 25 mg/kg, mice, read-out: time of peak plasma concentration (converted)): 0.0833 h | AUC(0-inf) [1, 4]: 22800 ng·h/mL | Cmax [1, 4]: 25400 ng/mL | half-life [1, 4]: 5.15 h | AUC(0-t) [1, 4]: 22300 ng·h/mL | MRT inf [1, 4]: 3.78 h | bioavailability ([1]; male, BALB/C, mouse, oral, 50 mg/kg, mice, p.o. 50 mg/kg vs i.v. 25 mg/kg, equation (1)): 33.3% | AUC(0-inf) [1, 5]: 15200 ng·h/mL | Cmax [1, 5]: 2970 ng/mL | half-life [1, 5]: 5.96 h | AUC(0-t) [1, 5]: 14500 ng·h/mL | CL/F ([1]; male, BALB/C, mouse, po, 50 mg/kg, mice, read-out: CL z/F (converted)): 54.8 mL/min/kg | MRT inf [1, 5]: 5.7 h | Vd/F ([1]; male, BALB/C, mouse, po, 50 mg/kg, mice, read-out: V z/F): 28.3 L/kg | Tmax ([1]; male, BALB/C, mouse, po, 50 mg/kg, p.o., 50 mg/kg, mice, read-out: Tmax): 1.5 h | maximum concentration into the brain ([2]; i.v., 25 mg/kg): 2.94 µg/g | Tmax ([2]; iv, 25 mg/kg, i.v., 25 mg/kg, read-out: Tmax): 0.08 h | Tmax ([2]; iv, 25 mg/kg, i.v., 25 mg/kg, read-out: time of maximum concentration into the brain (converted)): 0.0833 h | Tmax ([2]; po, 50 mg/kg, p.o., 50 mg/kg, read-out: Tmax): 0.5 h | Tmax ([2]; po, 50 mg/kg, p.o., 50 mg/kg, read-out: time of maximum concentration into the brain (converted)): 0.5 h | Kp ([2]; iv, 25 mg/kg): 0.095 | Kp ([2]; oral route, 50 mg/kg): 1.19 | AUC(0-inf) ([2]; iv, 25 mg/kg): 2150 ng·h/mL | Cmax ([2]; iv, 25 mg/kg): 2940 ng/g | half-life ([2]; iv, 25 mg/kg): 2.63 h | AUC(0-t) ([2]; iv, i.v., 25 mg/kg): 2140 ng·h/mL | MRT inf ([2]; iv, i.v., 25 mg/kg): 1.48 h | AUC(0-inf) ([2]; po, 50 mg/kg): 18000 ng·h/mL | Cmax ([2]; po, 50 mg/kg): 10600 ng/g | half-life ([2]; po, 50 mg/kg): 2.1 h | AUC(0-t) ([2]; po, p.o., 50 mg/kg): 18000 ng·h/mL | MRT inf ([2]; po, p.o., 50 mg/kg): 1.2 h | AUC brain/plasma, fold higher p.o. with respect to i.v. ([2]; p.o. 50 mg/kg vs i.v. 25 mg/kg): 12 fold | maximum concentration into the brain ([2]; p.o., 50 mg/kg): 10.65 µg/g | microscopic alterations in liver, kidney and central nervous system ([3]; 50 and 100 mg/kg i.v., 4 days after treatment, H&E): No microscopic alterations | treatment-related mortality ([3]; limit test dose 100 mg/kg, i.v., four days observation): did not produce treatment-related mortality | LD50 at 4 days ([3]; male, BALB/c, mouse, in vivo, iv, single dose, mice): > 100 mg/kg | behavior (apathy, hyperactivity, vomiting, diarrhea, morbidity) ([3]; up to 100 mg/kg i.v., four days observation): no significant changes occurred in the behavior | body weights ([3]; up to 100 mg/kg i.v., recorded daily): no significant changes | prolongation of survival (U87 cells): 30%

Reference: publication PMC6628362, “A New Strategy for Glioblastoma Treatment: In Vitro and In Vivo Preclinical Characterization of Si306, a Pyrazolo[3,4-d]Pyrimidine Dual Src/P-Glycoprotein Inhibitor” (Cancers, 2019)
